Test results from patent US6610535B1, “Progenitor cells and methods and uses related thereto” (ES Cell International Pte Ltd., priority 2000, dated 2003).
“Also recorded” adds a separate entry of the source. Like-named read-outs stand apart in the source and are kept apart here. Where no end group is shown, it is not given here.

Key:
Type in all cases: cell-based, rat
duct monolayer = assay: Induction of non-adherent cells (NACs, floating progenitor cells) from confluent pancreatic duct monolayer culture
duct cultures = assay: Immunostaining for insulin in duct cultures; details: FIG. 12; 48 hours in varying secretin doses
NACs = assay: Calcium imaging (Fluo-3) of glucose-induced calcium current in NACs; details: Fluo-3, confocal microscopy
Protocol: Cells were then washed to remove excess dye and placed onto a heated microscope stage (Olympus) and maintained at 32° C. Fluo-3 fluorescence intensity was used as an indicator of intracellular calcium concentration and was measured with a confocal laser-scanning microscope (Olympus). The excitation wavelength was set to 488 nm (argon ion laser) and a 40×water lens was used. The same parameters for laser scanning were set for each experiment, including confocal aperture and laser intensity. The laser scanning was performed as an XYT series with an interval of 10 seconds between each scan in order to resolve glucose-induced changes in intracellular calcium. The imaging files were stored and subsequently analyzed with FLUOVIEW software (Olympus). Cells of interest were circled and the mean intensity of the circled areas was plotted over time.

duct spheres = assay: Duct sphere differentiation after growth with added factors, immunohistochemistry; details: LIF in growth culture medium in addition to six growth factors
Protocol: Ducts are dissociated into single cells by the dissociation enzyme cocktail containing 1.33 mg/ml Trypsin, 0.7 mg/ml Hyaluronidase, 0.2 mg/ml Kynerenic Acid, and 200 U/ml DNase and plated into sphere culture media (culture media containing 10 ng/ml bFGF, 20 ng/ml EGF, 40 ng/ml HGF, 8 ng/ml TGF α, 30 ng/ml IGF-I and IGF-II, 2% B27 supplements (Gibco/BRL), 8 mM HEMES, 2 mM Glutamine, 100 U/ml penicillin and 100 ug/ml streptomycin in DMEM-F12 medium). After two days in culture, the primary spheres were taken onto HTB-9 matrix in the differentiation media (5% FBS in Iscove Media containing 200 ng/ml PYY and 30 uM Forskolin) for 4 days differentiation. The cells are fixed by 1% PFA followed by IHC analysis.

[1] = factor added to day 5 duct monolayer, 48 hours

Compound: CCCC(=O)Nc1ncnc2c1ncn2[C@@H]1O[C@@H]2COP(=O)(O)O[C@H]2[C@H]1OC(=O)CCC [Dibutyrl cAMP, dibutyryl-cAMP, reference compound]
- induction of differentiation of duct monolayer (duct monolayer; duct monolayer culture): found to induce differentiation
- effect on NAC / floating progenitor cell generation (duct monolayer; [1]): can substitute for DCE

Compound: CCCC(=O)[O-].[Na+] [Na-Butyrate, sodium butyrate, reference compound]
- effect on NAC / floating progenitor cell generation (duct monolayer): can substitute for DCE
- induction of differentiation of duct monolayer (duct monolayer): found to induce differentiation

Compound: EGF: epidermal growth factor (NSDSECPLSHDGYCLHDGVCMYIEALDKYACNCVVGYIGERCQYRDLKWWELR; UniProt P01133 971-1023, looked up)
- effect on NAC / floating progenitor cell generation (duct monolayer; [1]): neither dexamethasone nor EGF alone had significant effects

Compound: secretin: secretin
- induction of differentiation of duct monolayer (duct monolayer; duct monolayer culture): can induce differentiation
- effect on NAC / floating progenitor cell generation (duct monolayer; [1]): dose dependent increase
- number of insulin positive cells in the monolayer (duct cultures): increases with secretin dose

Compound: CC1=NS(=O)(=O)c2cc(Cl)ccc2N1 [diazoxide]
- effect on calcium current in NACs (NACs): completely inhibited

Compound: O=CC[C@@H](O)[C@H](O)[C@H](O)CO [2-deoxyglucose]
- effect on calcium current in NACs (NACs): not induced

Compound: Cholera toxin [reference compound]
- effect on NAC / floating progenitor cell generation (duct monolayer): majority of the activity
- induction of differentiation of duct monolayer (duct monolayer): found to induce differentiation

Compound: HGF: hepatocyte growth factor
- effect on NAC / floating progenitor cell generation (duct monolayer; [1]): only slight effects

Compound: O=C(O)CN(CCOCCOCCN(CC(=O)O)CC(=O)O)CC(=O)O [EGTA]
- effect on calcium current in NACs (NACs): inhibited

Compound: VIP: Vasoactive Intestinal Peptide (HSDAVFTDNYTRLRKQMAVKKYLNSILN-NH2; ends and bridges not checked; UniProt P01282 125-152, looked up)
- increase in number of floating progenitor cells versus control (duct monolayer; FIG. 13, 50 ng/ml, 48 hours, control 5% FCS): > 3 fold
- optimal dosage for induction of floating progenitor cells (duct monolayer; FIG. 13, 48 hours of treatment): 50 ng/mL
- effect on NAC / floating progenitor cell generation (duct monolayer; [1]): inducing the appearance of floating progenitor cells

Compound: CCCCNC(=O)NS(=O)(=O)c1ccc(C)cc1 [tolbutamide]
- effect on calcium current in NACs (NACs): activated; also recorded: stimulated a calcium current

Compound: LIF: leukemia inhibitory factor
- insulin positive cells upon differentiation (duct spheres): many fewer
- relative amount of Somatostatin positive cells upon differentiation (duct spheres): greatly increased

Compound: forskolin [reference compound]
- effect on NAC / floating progenitor cell generation (duct monolayer): can substitute for DCE
- induction of differentiation of duct monolayer (duct monolayer): found to induce differentiation

Compound: TGFβ1: growth factor TGFβ1
- effect on NAC / floating progenitor cell generation (duct monolayer; [1]): only slight effects

Compound: insulin: hormone insulin added to culture
- effect on secretin-induced induction of floating progenitor cells (duct monolayer; FIG. 14, insulin 10 ng/ml added simultaneously with secretin 100 nM): diminished
